Literature values, collected in patent US8247562B2, “Benzamide derivatives useful as histone deacetylase inhibitors” (Astrazeneca AB, priority 2002, dated 2012).

Key:
rat fibroblasts = conditions: Yoshida et al, Exper. Cell Res., 177, 122-131 (1988)
tumours in mice = conditions: Finnin et al., Nature, 401, 188-193 (1999)

CC(/C=C/C(=O)NO)=C\[C@@H](C)C(=O)c1ccc(N(C)C)cc1 [Trichostatin A]
cell cycle arrest (rat fibroblasts): arrest of rat fibroblasts at the G1 and G2 phases of the cell cycle | formation of tumours (tumours in mice): prevent the formation of tumours in mice
